# Where no end group is shown, it is not given here.
# What was measured:
# Assay type in all cases: cell-based
# [1] = system: Staphylococcus aureus (ATCC strain 6538P); conditions: for IC50: ATCC strain 6538P; for Activity against Staphylococcus, in particular S. aureus, in words: summary in description
# Procedure: (§1) Bacterial Stocks—ATCC derived stock bacteria were obtained from Oxoid Limited. Pseudomonas aeruginosa (ATCC strain 9027) or Staphylococcus aureus (ATCC strain 6538P) were obtained in ‘Cultiloop’ format. Stocks were prepared by inoculating 20 ml of LB broth with a single Cultiloop, and incubating overnight at 37° C. Cells present after overnight incubation were harvested by removing larger aggregates by centrifugation (3000 g, 10 minutes), and withdrawing 16 ml of the supernatant, which was likely to contain mainly planktonic bacteria. To this, 4 ml of sterile glycerol was added (the latter having been sterilised by autoclaving). The resultant suspension was divided between 15× 1 ml cryovials before freezing at −85° C.
# (§2) Preliminary experiments were carried out to estimate the amount to dilute bacterial stocks which when on addition of 25 μl of diluted stock to 100 μl of fresh LB broth would result in bacteria in log phase growth after overnight incubation at 37° C.
# (§3) The peptides were examined for antibacterial efficacy against Staphylococcus aureus. To test the efficacy of peptides, dilutions of test peptides or PBS (for use as a control) were prepared in LB broth, and 100 μl aliquots of these placed in 96-well plates. A vial of planktonic bacterial stock was thawed in a 37° C. incubator and diluted to the level previously determined which would produce log phase growth after overnight incubation (see above). 25 μl of this bacterial dilution was then added to the test wells (some wells containing LB broth without peptide were left without any bacterial inoculation, these being used as a blank). After overnight growth, the concentration of bacteria in individual wells was assessed by measuring absorbance at 620 nm, in a microplate spectrophotometer. The average absorbance of wells for specific concentrations of peptides was calculated, and from this the percentage inhibition (relative to untreated wells) was also calculated and plotted against concentration (along with an estimate of error on that % inhibition).
# (§4) The inventor constructed an expanded library of peptides derived from either apolipoprotein B or apolipoprotein E in order to further evaluate polypeptides in accordance with the invention. Further experiments were then conducted to investigate the antibacterial activity of this peptide library against the bacteria P. aeroginosa, S. aureus and S. pneumoniae. The methods used to determine the IC50 values for each peptide were as described in the Example 1.
# [2] = system: Pseudomonas aeruginosa (ATCC strain 9027); conditions: for IC50: ATCC strain 9027; for Effectiveness against Pseudomonadales, in particular P. aeruginosa, in words: summary in description
# Procedure: as §1, §2, §3
# Peptides in accordance with the invention were also examined for antibacterial efficacy against Pseudomonas aeruginosa using the same technique as described above to calculate the IC50 values.
# Points were obtained by dividing the average for six treated wells by the average for six untreated wells, and bars show an estimate of the error for these calculated values.
# as §4
# [3] = system: Staphylococcus aureus, Pseudomonas aeruginosa, and Streptococcus pneumoniae; test: Antibacterial activity, overall statements over the test bacteria
# Excerpt: The inventors conducted exhaustive experiments to assess the antibacterial activity of peptides from apolipoproteins and derivatives thereof. Peptides and derivatives from ApoE and ApoB were a particular focus. […] Example 1 illustrates the efficacy of the polypeptides according to the invention compared to apoE141-149 and apoB3359-3367 (i.e. non-tandem repeats) and other peptides derived from apolipoproteins.
# The activity of polypeptides in accordance with the invention can be seen in Tables 5, 6, 7 and 8.
# as §3, §4
# [4] = system: Streptococcus pneumoniae
# Procedure: as §3, with “inhibition). […] The inventor constructed an expanded library of peptides derived from either apolipoprotein B or apolipoprotein E in order to further evaluate polypeptides in accordance with the invention. Further experiments were then conducted to investigate the antibacterial activity of this peptide library against the bacteria P. aeroginosa, S. aureus and S. pneumoniae. The methods used to determine the IC50 values for each peptide were as described in the Example 1.” for “inhibition).”
Substance,IC50 [1] [µM],IC50 [2] [µM],"Antibacterial activity, in words, bacterium not specified [3]","Effectiveness against Pseudomonadales, in particular P. aeruginosa, in words [2]",IC50 [4] [µM],"Activity against Staphylococcus, in particular S. aureus, in words [1]"
Ac-LRKLRKRLLLRKLRKRWW-NH2 (N-terminus and C-terminus assumed) [MU_112],7,7,particularly effective,–,–,–
Ac-LRKLRKRLLRLRKLRKRLLR-NH2 (N-terminus and C-terminus assumed) [MU_82],13,–,particularly effective,particularly effective,–,–
Ac-LRKLRKRLLWRKWRKRLL-NH2 (N-terminus and C-terminus assumed) [MU_113],11,–,–,particularly effective,–,–
Ac-LRKLRKRLLWRKWRKRWW-NH2 (N-terminus and C-terminus assumed) [MU_111],7,12.5,–,–,–,–
Ac-LRKLRKRLRKLRKR-NH2 (N-terminus and C-terminus assumed) [GIN 08],–,9.2,–,particularly effective,> 53,–
Ac-LRKRLLLRKLRKRLL-NH2 (N-terminus and C-terminus assumed) [GIN 02],–,8.5,–,particularly effective,–,–
Ac-WRKLRKRLLLRKLRKRLL-NH2 (N-terminus and C-terminus assumed) [MU_115],9,3,particularly effective,particularly effective,–,–
Ac-WRKWRKRLLLRKLRKRLL-NH2 (N-terminus and C-terminus assumed) [MU_114],5.5,–,–,particularly effective,–,particularly active
CRKCRKRCCCRKCRKRCC [MU_12],–,–,do not show antibacterial activity,–,–,–
DRKDRKRDDDRKDRKRDD [MU_3],–,–,do not show antibacterial activity,–,–,–
FRKFRKRFFFRKFRKRFF-NH2 (C-terminus assumed) [MU_7],11,6,particularly effective,–,–,–
IRKIRKRIIIRKIRKRII-NH2 (C-terminus assumed) [MU_8],> 53,45,–,–,–,–
LLRKRLKRLLLRKRLKRL-NH2 (C-terminus assumed) [MU_24],34,7,particularly effective,–,–,–
"LRKLRKRLL [apoE141-149, reference compound]",–,–,no detectable antibacterial activity,–,–,–
LRKLRKRLL-NH2 (C-terminus assumed) [MU_46],–,22,–,–,> 53,–
LRKLRKRLLLRK [GIN 05],–,–,do not show antibacterial activity,–,–,–
"LRVRLASHLRKLRKRLLRDADDLQKRLAVY LRVRLASHLRKLRKRLLRDADDLQKRLAVY (LRVRLASHLRKLRKRLLRDADDLQKRLAVYLRVRLASHLRKLRKRLLRDADDLQKRLAVY) [tandem repeat of Azuma's peptide, 60-mer dimer of apoE133-162]",–,–,improved antibacterial efficacy,–,–,–
MRKLRKRLMMRKLRKRLM-NH2 (C-terminus assumed) [MU_43],–,17,particularly effective,–,–,–
MRKMRKRMMMRKMRKRMM-NH2 (C-terminus assumed) [MU_5],> 53,> 53,–,–,–,–
RKRGWKWRKRGWKW-NH2 (C-terminus assumed) [MU_73],22,42.5,particularly effective,–,–,–

Substance,IC50 [1] [µM],IC50 [2] [µM],"Antibacterial activity, in words, bacterium not specified [3]","Effectiveness against Pseudomonadales, in particular P. aeruginosa, in words [2]",IC50 [4] [µM],"Activity against Staphylococcus, in particular S. aureus, in words [1]"
"RLTRKRGLK [apoB3359-3367, monomeric 9-mer of apolipoprotein B, reference compound]",–,–,no detectable antibacterial activity,–,–,–
RLTRKRGRLTRKRG-NH2 (C-terminus assumed) [MU_74],> 53,31,–,–,–,–
RWRKRGRKRWRKRGRK-NH2 (C-terminus assumed) [MU_69],27,> 53,–,–,–,–
RWRKRWRKRWRKRWRK-NH2 (C-terminus assumed) [MU_37],35,23,particularly effective,–,–,–
RWRKRWRKRWRKRWRK-NH2 (C-terminus assumed) [MU_71],18.5,28,–,–,–,–
RWRKRWRWRKRWRWRKRW-NH2 (C-terminus assumed) [MU 84],15,53,–,–,–,–
WRKRWWRWRKRWWR-NH2 (C-terminus assumed) [MU_81],20,28,–,–,–,–
WRKWRKFFFRKWRKRWW-NH2 (C-terminus assumed) [MU_116],6.5,14,–,–,–,–
WRKWRKRFFWRKWRKRFF-NH2 (C-terminus assumed) [MU_61],5,3,particularly effective,particularly effective,–,particularly active
WRKWRKRWRKWRKR-NH2 (C-terminus assumed) [GIN 32],–,5,–,–,–,–
WRKWRKRWRKWRKRW-NH2 (C-terminus assumed) [MU_59],11,7.5,particularly effective,–,–,–
WRKWRKRWWFRKFRKRFF-NH2 (C-terminus assumed) [MU_117],7,10,–,–,–,–
WRKWRKRWWFRKWRKRWW-NH2 (C-terminus assumed) [MU_60],6,12.5,particularly effective,–,–,particularly active
WRKWRKRWWRKWRKRWW-NH2 (C-terminus assumed) [MU_58],8,7.5,particularly effective,–,–,particularly active
WRKWRKRWWRWRKWRKRWWR-NH2 (C-terminus assumed) [MU_83],9,15,particularly effective,–,–,–
WRKWRKRWWWRKWRKRWW-NH2 (C-terminus assumed) [MU_4],–,–,particularly effective,–,–,particularly active
WRWKKKWRKWRWKKKWRK-NH2 (C-terminus assumed) [MU_26],52,52,–,–,–,–
WRWRRRWRKWRWRRRWRK-NH2 (C-terminus assumed) [MU_25],> 53,> 53,–,–,–,–
YRKYRKRYYYRKYRKRYY-NH2 (C-terminus assumed) [MU_6],–,> 53,–,–,–,particularly active
modified apoB3359-3367: modified form of the apoB3359-3367 9-mer; sequence only in the drawing of Table 1 (LRTRKRGRK) [reference compound],–,–,no detectable antibacterial activity,–,–,–
